This is an account of results in patent US20260274814A1, “THIENYL COMPOUNDS FOR THE TREATMENT OF A CENTRAL NERVOUS SYSTEM DISEASE OR DISORDER” (Coreterra Therapeutics, Inc., priority 2023, published 2026).

This experiment concerns mice. The experiment can be described thus: Neuropharmacological Assay (SmartCube): automated behavioral signature of compound-treated mice compared with a database of reference drug classes. In kind it is in vivo. To be noted: for minimal effective dose: Mus musculus, ip. A digest of the protocol: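 Probabilities of matching each neuropharmacological class (e.g. anxiolytic, antidepressant) come from algorithmic analysis of digitally recorded behaviour, reported for 3.0 mg/kg. Compounds were given intraperitoneally in a Pharmasolve/PEG/propylene glycol vehicle 15 min pre-test. Minimal effective dose is the lowest dose reaching 45% or more total activity.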

[1] abbreviates: probability that activity matches this class of agents, 3.0 mg/kg i.p., 15 min before test.
Setting [2] is: minimal effective dose: dose having 45% or more total activity in SmartCube, i.p., if only one dose tested, that dose is shown, read-out: MED.
Where [3] appears, read: SmartCube class probability, 3.0 mg/kg i.p., 15 min before test.
Where [4] appears, read: dose having 45% or more total activity in SmartCube, i.p., if only one dose was tested, that dose is shown.
Setting [5] is: probability that activity matches this class of agents, 3.0 mg/kg i.p., 15 min before test, hydrochloride, 3 mg/kg.
[6] abbreviates: dose having 45% or more total activity in SmartCube, i.p., if only one dose was tested, that dose is shown, hydrochloride.
Where [7] appears, read: SmartCube probability class, 3.0 mg/kg dose, i.p. 15 min before the behavioral test.

Counter-ions that a name gives are not always drawn. Like-named read-outs stand apart in the source and are kept apart here. Bounds are passed on as bounds.

As to `CNC1CCc2sc(F)cc2C1` (stereo not drawn) [Compound 82, 2-fluoro-N-methyl-4,5,6,7-tetrahydrobenzothiophen-5-amine hydrochloride], the minimal effective dose (dose having 45% or more total activity in SmartCube, i.p., if only one dose was tested, that dose is shown, read-out: MED (minimal effective dose)) was 3 mg/kg. Besides, under setting [1], the AD entry is “++ (≥24%)”, the AG entry was “ND (^ <4%)”, the AN result was “ND (^ <4%)” and the AP entry is on record as “+ (≥4%)”. Further, under setting [1], the AX entry is “ND (^ <4%)”, the CE result was “ND (^ <4%)”, the HL entry is “ND (^ <4%)” and the MS result is reported as “ND (^ <4%)”. Under setting [1], the PS entry is recorded as “ND (^ <4%)”, the SH entry is “ND (^ <4%)” and the UK result is “++ (≥24%)”.

As for `Cc1scc2c1CC(N)CC2` (single isomer, unassigned) [Compound 162, 3-methyl-4,5,6,7-tetrahydro-2-benzothiophen-5-amine hydrochloride], under setting [2], the minimal effective dose stood at 3 mg/kg. Further, under setting [3], the AD entry is given as “ND (^ <4%)”, the AG entry was “ND (^ <4%)”, the AN entry was “ND (^ <4%)” and the AP entry is “ND (^ <4%)”. Besides, under setting [3], the CE result is on record as “ND (^ <4%)”, the HL result is on record as “ND (^ <4%)”, the MS entry is reported as “ND (^ <4%)” and the PS result is “ND (^ <4%)”. Besides, under setting [3], the SH result is “ND (^ <4%)” and the UK entry is given as “+ (≥4%)”. The AX entry (SmartCube class probability, 3.0 mg/kg i.p., 15 min before test, hydrochloride, 3 mg/kg) was “+++ (≥49%)”.

Take `NC1COc2c(Cl)csc2C1` (stereo not drawn) [Compound 215, 3-chloro-6,7-dihydro-5H-thieno[3,2-b]pyran-6-amine hydrochloride]: the minimal effective dose under setting [2] came to 3 mg/kg. Under setting [3], the AD result is listed as “ND (^ <4%)”, the AG result was “ND (^ <4%)”, the AN result was “ND (^ <4%)” and the AP entry is “+ (≥4%)”. Under setting [3], the AX entry is listed as “+++ (≥49%)”, the CE result is reported as “ND (^ <4%)”, the HL entry is given as “ND (^ <4%)” and the MS result is given as “ND (^ <4%)”. Moreover, under setting [3], the PS entry is “ND (^ <4%)”, the SH result is “ND (^ <4%)” and the UK entry was “ND (^ <4%)”.

Turning to `NC1CCc2sc(Cl)cc2C1` (stereo not drawn) [Compound 216, 2-chloro-4,5,6,7-tetrahydrobenzothiophen-5-amine hydrochloride], the minimal effective dose under setting [2] is more than 3 mg/kg. For the same molecule, under setting [3], the AD entry was “ND (^ <4%)”, the AG entry is reported as “ND (^ <4%)”, the AN entry is “ND (^ <4%)” and the AP result is recorded as “ND (^ <4%)”. Besides, under setting [3], the AX result is on record as “++ (≥24%)”, the CE result is “ND (^ <4%)”, the HL result is “ND (^ <4%)” and the MS entry was “ND (^ <4%)”. Under setting [3], the PS entry is “ND (^ <4%)”, the SH entry is “ND (^ <4%)” and the UK entry is “+ (≥4%)”.

Turning to `CNC1CCc2c(csc2Cl)C1` (single isomer, unassigned) [Compound 58, 1-chloro-N-methyl-4,5,6,7-tetrahydro-2-benzothiophen-5-amine hydrochloride], under setting [4], the “MED (minimal effective dose)” value was found to be 1.0 mpk. Further, under setting [1], the AG result was “ND (^ <4%)”, the AN entry is on record as “ND (^ <4%)”, the AX entry is “ND (^ <4%)” and the CE entry is “ND (^ <4%)”. Under setting [1], the HL result is “ND (^ <4%)”, the PS result is “ND (^ <4%)” and the SH result is listed as “ND (^ <4%)”. Further, under setting [5], the AD result is “+ (≥4%)”, the AP result is “+++ (≥49%)”, the MS entry is “+ (≥4%)” and the UK entry was “ND (^ <4%)”.

On to `CNC1CCc2scc(C)c2C1.Cl` (single isomer, unassigned) [Compound 69, N, 3-dimethyl-4,5,6,7-tetrahydrobenzothiophen-5-amine hydrochloride], for which the “MED (minimal effective dose)” value under setting [6] is 3 mpk. For the same molecule, under setting [1], the AD entry was “ND (^ <4%)”, the AG entry is on record as “ND (^ <4%)”, the AN result is “ND (^ <4%)” and the CE entry is “ND (^ <4%)”. In addition, under setting [1], the HL entry is listed as “ND (^ <4%)”, the MS result is on record as “ND (^ <4%)”, the PS result is recorded as “ND (^ <4%)” and the SH result is recorded as “ND (^ <4%)”. Also, under setting [5], the AP entry is “ND (^ <4%)”, the AX entry is given as “ND (^ <4%)” and the UK result was “+++ (≥49%)”.

As for `Cc1cc2c(s1)CC(N(C)C)CC2.Cl` (single isomer, unassigned) [Compound 35, N,N, 2-trimethyl-4,5,6,7-tetrahydrobenzothiophen-6-amine hydrochloride], the “MED (minimal effective dose)” value under setting [4] came to 10 mpk. Moreover, under setting [1], the AD entry is listed as “ND (^ <4%)” and the UK entry was “++ (≥24%)”.

`NC1CCc2scc(C3CC3)c2C1` (single isomer, unassigned) [Compound 277, 3-cyclopropyl-4,5,6,7-tetrahydrobenzothiophen-5-amine hydrochloride]: the minimal effective dose under setting [2] is more than 3 mg/kg. Further, under setting [3], the AD result is recorded as “ND (^ <4%)”, the AG entry is “ND (^ <4%)”, the AN result is “ND (^ <4%)” and the AP result is “ND (^ <4%)”. In addition, under setting [3], the AX result is “ND (^ <4%)”, the CE result was “ND (^ <4%)”, the HL entry is “ND (^ <4%)” and the MS entry was “ND (^ <4%)”. Moreover, under setting [3], the PS entry is listed as “ND (^ <4%)”, the SH entry is reported as “ND (^ <4%)” and the UK entry is “+ (≥4%)”.

Consider `CNC1Cc2ccsc2C1.Cl` (single isomer, unassigned) [Compound 20, N-methyl-5,6-dihydro-4H-cyclopenta[b]thiophen-5-amine hydrochloride], for which the “MED (minimal effective dose)” value under setting [6] is on record as 1.0 mpk. Moreover, under setting [1], the AG result is “ND (^ <4%)”, the AN entry is “ND (^ <4%)”, the AP result is recorded as “+ (≥4%)” and the HL result is “ND (^ <4%)”. Also, under setting [1], the MS entry was “ND (^ <4%)”, the PS entry is reported as “ND (^ <4%)” and the SH entry was “ND (^ <4%)”. Under setting [5], the AD entry was “++++ (≥74%)”, the AX result is recorded as “+ (≥4%)”, the CE entry is “+ (≥4%)” and the UK result is “ND (^ <4%)”.

For the molecule `CNC1COc2c(C)csc2C1` (single isomer, unassigned) [Compound 298, N, 3-dimethyl-6,7-dihydro-5H-thieno[3,2-b]pyran-6-amine hydrochloride], under setting [7], the AD result is on record as “ND (^ <4%)”, the AG result was “ND (^ <4%)”, the AN result is given as “ND (^ <4%)” and the AP result is listed as “ND (^ <4%)”. Under setting [7], the CE entry is “ND (^ <4%)”, the HL entry is “ND (^ <4%)”, the MS entry was “ND (^ <4%)” and the PS result is “ND (^ <4%)”. Besides, under setting [7], the SH entry is given as “ND (^ <4%)” and the UK entry is given as “ND (^ <4%)”. In addition, the AX entry (SmartCube probability class, 3.0 mg/kg dose, i.p. 15 min before the behavioral test, hydrochloride, 3 mg/kg) was “+++ (≥49%)”. Under “minimal effective dose: dose having 45% or more total activity in SmartCube, i.p., if only one dose was tested, that dose is shown”, this molecule returned an MED of 3 mpk.

As to `NC1Cc2ccsc2C1` (stereo not drawn) [Compound 311, 5,6-dihydro-4H-cyclopenta[b]thiophen-5-amine hydrochloride], where the note is “minimal effective dose: dose having 45% or more total activity in SmartCube, i.p., if only one dose was tested, that dose is shown, read-out: MED”, the minimal effective dose was found to be 3 mg/kg. In addition, under setting [7], the AD result is given as “++ (≥24%)”, the AG entry was “ND (^ <4%)”, the AN result is on record as “ND (^ <4%)” and the AP entry is listed as “ND (^ <4%)”. Moreover, under setting [7], the AX entry is reported as “ND (^ <4%)”, the CE entry is “ND (^ <4%)”, the HL entry was “ND (^ <4%)” and the MS result is listed as “ND (^ <4%)”. Under setting [7], the PS result was “ND (^ <4%)”, the SH entry is reported as “ND (^ <4%)” and the UK result is “+++ (≥49%)”.

On to `Cl.c1cc2c(s1)CC(N1CCCC1)CC2` (single isomer, unassigned) [Compound 17, 1-(4,5,6,7-tetrahydrobenzothiophen-6-yl)pyrrolidine hydrochloride], for which, under setting [6], the “MED (minimal effective dose)” value is 1.0 mpk. Under setting [1], the AG result is reported as “ND (^ <4%)”, the AN result is recorded as “ND (^ <4%)”, the CE entry is “ND (^ <4%)” and the HL entry is “ND (^ <4%)”. Under setting [1], the MS entry is given as “ND (^ <4%)”, the PS entry was “ND (^ <4%)”, the SH result was “ND (^ <4%)” and the UK entry is listed as “ND (^ <4%)”. Under setting [5], the AD entry is listed as “ND (^ <4%)”, the AP result is “+++ (≥49%)” and the AX result is “++++ (≥74%)”.

As to `CNC1CCc2csc(Cl)c2C1` (single isomer, unassigned) [Compound 56, 3-chloro-N-methyl-4,5,6,7-tetrahydro-2-benzothiophen-5-amine hydrochloride], under setting [4], the “MED (minimal effective dose)” value turned out to be 1.0 mpk. Under setting [1], the AG entry was “ND (^ <4%)”, the AP entry is reported as “++ (≥24%)”, the CE result was “ND (^ <4%)” and the HL entry was “ND (^ <4%)”. Besides, under setting [1], the MS result was “ND (^ <4%)”, the PS entry is given as “ND (^ <4%)”, the SH result is on record as “ND (^ <4%)” and the UK result is “ND (^ <4%)”. In addition, under setting [5], the AD result is “ND (^ <4%)”, the AN entry is on record as “+ (≥4%)” and the AX result is given as “++ (≥24%)”.
